According to patent publication US9873705B2, “Vinylogous thioester compounds and methods of use” (THE TRUSTEES OF DARTMOUTH COLLEGE, priority 2015, dated 2018):
Entries after “also recorded” stand apart in the source; their conditions may differ.

Key:
[1] = test system: p62 and LC3B protein expression in U87-MG cells; assay: Western blot of autophagy markers p62 and LC3B; assay type: cell-based, human
Excerpt: Ras dysregulated tumors depend on autophagy to remove damaged mitochondria and allow for their survival. […] LC3B I is lipidated to form LC3B II following induction of autophagy. LC3B II is recruited and subsequently integrated into the autophagosome. p62 functions as an adaptor protein in autophagy by binding to both ubiquitin-labeled damaged cargo such as protein aggregates or mitochondria and LC3B II to facilitate cargo uptake into the autophagosome. Degradation of the cargo occurs when the autophagosome fuses with the lysosome; when autophagy is inhibited with hydroxychloroquine (HCQ), a drug that prevents acidification of the lysosome, both LC3B II and p62 accumulate as derogation of the autophagosome is prevented, making them valuable markers of autophagic flux.
The data for FIG. 4 was obtained as follows: U87-MG cells were plated in 6-well plates at a concentration of 500,000 cells/well and allowed to adhere overnight. Cells were treated for 12 h with either DMSO or 2 μM Y102, followed by an additional 12 h co-treatment with or without 50 μM HCQ. Following treatment, cells were harvested using 0.25% trypsin, rinsed with PBS, and lysed with 75 μL modified RIPA buffer (50 mM NaCl, 1% v/v nonidet P40, 0.5% w/v sodium deoxycholate, 0.05% w/v sodium dodecyl sulfate, 50 mM Tris pH 8.0) containing 1 mM NaVO4, 1 mM NaF, 1 mM phenylmethylsulfonyl fluoride, 0.1 μg/mL leupeptin, 100 μM benzamidine HCl, 1 μM aprotinin, 0.1 μg/mL soybean trypsin inhibitor, 0.1 μg/mL pepstatin, and 0.1 μg/mL antipain. Protein was quantified using a BCA assay kit (Pierce). 40 μg of protein prepared in 1× Laemmli sample buffer (50 mM Tris pH 6.8, 0.02% w/v bromophenol blue, 2% w/v sodium dodecyl sulfate, 10% v/v glycerol, 1% v/v beta-mercaptoethanol, 12.5 mM EDTA) was separated on a 4-15% polyacrylamide gel using sodium dodecyl sulfate-polyacrylamide gel electrophoresis. Protein was transferred to nitrocellulose membrane, blocked in 5% nonfat milk in TBST, and probed with primary antibodies anti-LC3BI/II (Cell Signaling, 1:1000, overnight at 4° C.), anti-p62/SQSTM-1 D-3 (Santa Cruz, 1:1000, 1 h at room temperature), or anti-α-tubulin B-1-2-5 (Santa Cruz, 1:10000, 1 h at room temperature) in 2% nonfat milk in TBST. Blots were incubated in 1:20,000 anti-rabbit HRP or 1:10,000 anti-mouse HRP secondary antibodies diluted in 2% nonfat milk in TBST for 1 h at room temperature. Film was exposed to standard ECL (Pierce)-coated blots and developed using a standard film processor.

U87-MG cells = assay: U87-MG cell viability, alamarBlue, washout; assay type: cell-based, human; conditions: 2 hour treatment then washout compared to 72 hour treatment; 0 to 20 μM
Procedure: Growth inhibition assays as described above were performed on ira2Δ yeast cells and NF1-deficient glioblastoma cells. Log-phase yeast were grown at 30° C. starting at an OD600 of 0.05 in 96-well plates with Y102 at concentrations ranging from 0 to 100 μM. Following 18 h treatment, OD600 was measured using a THERMOmax (Molecular Devices) microplate reader and SOFTmax Pro 4.3 LS software. Results were plotted as a percentage compared to DMSO control using GraphPad Prism software. Graph represents an average of three experiments with four technical replicates per experiment (FIG. 2A). In a similar experiment U87-MG cells were plated at a concentration of 5,000 cells/well into 96-well plates and allowed to adhere overnight. The following day, cells were treated with Y102 at concentrations ranging from 0 to 20 μM for up to 72 h. For treatments less than 72 h, treatment media was removed at the indicated time points and replaced with normal growth medium. Three hours prior to collection, alamarBlue (Thermo Scientific) was added to a final concentration of 5% v/v. AlamarBlue fluorescence was determined with a Spectramax M2 (Molecular Devices) plate reader at an excitation of 544 nm and an emission of 590 nm using SoftMax Pro 3 software. Results were plotted as a percentage compared to DMSO control using GraphPad Prism software (FIG. 2B). […]

[2] = test system: BNIP3L/Nix in NF1+/+ and NF1−/− IMEC CRISPR cells; assay: BNIP3L/Nix immunofluorescence; assay type: cell-based; conditions: 1 μM, 24 h, NF1−/− vs NF1+/+ IMEC CRISPR cells, vs DMSO
Excerpt: Mitochondria can also be removed via non-selective autophagy (21). To distinguish between inhibition of mitophagy and not non-selective autophagy, expression and localization of one mitophagy-specific receptors involved in […] mitophagy, BNIP3L/Nix, was examined via immunofluorescence (25) (FIG. 10). BNIP3 and its homologue BNIP3L/NIX are involved in hypoxia-induced mitophagy and are transcriptionally regulated through HIF in human cancers (27). BNIP3-mediated mitophagy is also reported to occur following perinuclear clustering and fragmentation of the mitochondria (28,29). Under hypoxic conditions, both BNIP3 and FUNDC1 are reported to localize to the outer mitochondrial membrane (30). Therefore, if mitophagy is inhibited with Y102 under hypoxic conditions, BNIP3, NIX/BNIP3L, and/or FUNDC1 should accumulate if Y102 inhibits […] mitophagy following receptor localization.
CRISPR technology was used to introduce mutated NF1 into mammalian IMEC cells in order to generate an isogenic system for the testing of compounds that mimics the yeast isogenic system used in the original screens.
The data for FIG. 10 was obtained as follows: NF1+/+ and NF1−/− IMEC CRISPR cells were plated on poly-L-lysine (Sigma) coated coverslips at a concentration of 50,000 cells/well in a 24-well plate and allowed to adhere overnight. […]

Cn1cnnc1S/C=C/C(=O)c1ccc(F)cc1 [Y102]
LC3B I/II conversion (LC3B II accumulation) ([1]; 12 hours Y102 followed by 12 hours HCQ co-treatment): LC3B II accumulation occurred, but not as robustly as with HCQ alone; also recorded: LC3B I/II conversion was seen
p62 accumulation (autophagy marker) ([1]; U87-MG, Western blot, 24 hours, 2 μM Y102, 50 μM HCQ): accumulation of the autophagy marker p62
LC3B I/II conversion (LC3B II accumulation) ([1]; U87-MG, Western blot, single agent, 2 μM Y102, 50 μM HCQ): not found to accumulate; also recorded: not LC3B I/II conversion
reversibility of effect on U87-MG cell viability (U87-MG cells): irreversible
BNIP3L/Nix accumulation (mitophagy receptor) [2]: perinuclear clustering of the mitophagy receptor BNIP3L/NIX was observed; also recorded: accumulated with Y102 treatment moreso in NF1−/− cells than in NF1+/+ cells
